According to patent US7803930B2, “Antisense modulation of apolipoprotein B-expression” (Isis Pharmaceuticals, Inc., priority 2002, dated 2010):
In the oligonucleotide strings, read from the 5' end, every base follows the letter of its sugar. An asterisk marks phosphorothioate; unmarked linkages are phosphodiester. Other units and linkages are bracketed, terminal groups are in braces. A string of capitals states the bases alone. e = 2'-O-(2-methoxyethyl) (MOE); [5mC] = 5-methylcytosine; d = 2'-deoxy (DNA)

Columns and labels:
[1] = system: mouse apolipoprotein B mRNA; assay: Inhibition of mouse apolipoprotein B mRNA levels in primary mouse hepatocytes, real-time PCR; assay type: cell-based; settings: for % INHIB: Table 3, 150 nM, averages from two experiments; for Percent Inhibition 50 nM: Table 4, 50 nM; for Percent Inhibition 150 nM: Table 4, 150 nM; for Percent Inhibition 300 nM: Table 4, 300 nM
Procedure: Primary mouse hepatocytes were prepared from CD-1 mice purchased from Charles River Labs (Wilmington, Mass.) and were routinely cultured in Hepatoyte Attachment Media (Gibco) supplemented with 10% Fetal Bovine Serum (Gibco/Life Technologies, Gaithersburg, Md.), 250 nM dexamethasone (Sigma), and 10 nM bovine insulin (Sigma). Cells were seeded into 96-well plates (Falcon-Primaria #3872) at a density of 10000 cells/well for use in RT-PCR analysis.
When cells reached 80% confluency, they were treated with oligonucleotide. For cells grown in 96-well plates, wells were washed once with 200 μL OPTI-MEM™-1 reduced-serum medium (Gibco BRL) and then treated with 130 μL of OPTI-MEM™-1 containing 3.75 μg/mL LIPOFECTIN™ (Gibco BRL) and the desired concentration of oligonucleotide. After 4-7 hours of treatment, the medium was replaced with fresh medium. Cells were harvested 16-24 hours after oligonucleotide treatment.
Quantitation of apolipoprotein B mRNA levels was determined by real-time quantitative PCR using the ABI PRISM™ 7700 Sequence Detection System (PE-Applied Biosystems, Foster City, Calif.) according to manufacturer's instructions. This is a closed-tube, non-gel-based, fluorescence detection system which allows high-throughput quantitation of polymerase chain reaction (PCR) products in real-time. As opposed to standard PCR, in which amplification products are quantitated after the PCR is completed, products in real-time quantitative PCR are quantitated as they accumulate. This is accomplished by including in the PCR reaction an oligonucleotide probe that anneals specifically between the forward and reverse PCR primers, and contains two fluorescent dyes. A reporter dye (e.g., JOE, FAM, or VIC, obtained from either Operon Technologies Inc., Alameda, Calif. or PE-Applied Biosystems, Foster City, Calif.) is attached to the 5′ end of the probe and a quencher dye (e.g., TAMRA, obtained from either Operon Technologies Inc., Alameda, Calif. or PE-Applied Biosystems, Foster City, Calif.) is attached to the 3′ end of the probe. When the probe and dyes are intact, reporter dye emission is quenched by the proximity of the 3′ quencher dye. During amplification, annealing of the probe to the target sequence creates a substrate that can be cleaved by the 5′-exonuclease activity of Taq polymerase. […] With each cycle, additional reporter dye molecules are cleaved from their respective probes, and the fluorescence intensity is monitored at regular intervals by laser optics built into the ABI PRISM™ 7700 Sequence Detection System. In each assay, a series of parallel reactions containing serial dilutions of mRNA from untreated control samples generates a standard curve that is used to quantitate the percent inhibition after antisense oligonucleotide treatment of test samples.
Probes and primers to mouse apolipoprotein B were designed to hybridize to a mouse apolipoprotein B sequence, using published sequence information (GenBank accession number M35186, incorporated herein as SEQ ID NO: 10). For mouse apolipoprotein B the PCR primers were: forward primer: CGTGGGCTCCAGCATTCTA (SEQ ID NO: 11) reverse primer: […] (SEQ ID NO: 12) and the PCR probe was: FAM-[…]-TAMRA SEQ ID NO: 13) where FAM (PE-Applied Biosystems, Foster City, Calif.) is the fluorescent reporter dye) and TAMRA (PE-Applied Biosystems, Foster City, Calif.) is the quencher dye. For mouse GAPDH the PCR primers were: forward primer: […] (SEQ ID NO: 14) reverse primer: […] (SEQ ID NO:15) and the PCR probe was: 5′ JOE-[…]-TAMRA 3′ (SEQ ID NO: 16) where JOE (PE-Applied Biosystems, Foster City, Calif.) is the fluorescent reporter dye) and TAMRA (PE-Applied Biosystems, Foster City, Calif.) is the quencher dye.
In accordance with the present invention, a series of oligonucleotides was designed to target different regions of the mouse apolipoprotein B RNA, using published sequence (GenBank accession number M35186, incorporated herein as SEQ ID NO: 10). […]

[2] = LDLr(-/-) mice dose response (Example 44): liver enzyme, cholesterol and triglyceride levels; assay type: in vivo, mouse; settings: 50 mg/kg i.p. twice a week, six weeks
Procedure: LDLr(−/−) mice, purchased from Taconic (Germantown, N.Y.) were used to evaluate antisense oligonucleotides for their potential to lower apolipoprotein B mRNA or protein levels, as well as phenotypic endpoints associated with apolipoprotein B. LDLr(−/−) mice were separated into groups of males and females. LDLr(−/−) mice were dosed intraperitoneally twice a week for six weeks with either 10, 25, or 50 mg/kg of ISIS 147764 (SEQ ID NO: 109) or ISIS 270906 (SEQ ID NO: 856) which is a 4 base mismatch of ISIS 147764, or with saline, or 20 mg/kg of Atorvastatin. At study termination animals were sacrificed and evaluated for several phenotypic markers.

Substance | % INHIB [1] [%] | other results
147503 (eA*eA*eT*eG*eG*dA*dT*dG*dA*dT*dG*dA*dA*dA*d[5mC]*eA*eG*eT*eG*eG; antisense) [compound 147503] | 26 | 
147505 (eG*eG*eA*eA*eG*dT*dG*dA*dG*dA*d[5mC]*dT*dT*dT*d[5mC]*eT*eA*eA*eG*e[5mC]; antisense) [compound 147505] | 76 | 
147506 (eA*eG*eG*eA*eA*dG*dG*dA*dA*d[5mC]*dT*d[5mC]*dT*dT*dG*eA*eT*eA*eT*eT; antisense) [compound 147506] | 58 | 
147507 (eA*eT*eT*eG*eG*d[5mC]*dT*dT*d[5mC]*dA*dT*dT*dG*dG*d[5mC]*eA*eA*e[5mC]*eA*e[5mC]; antisense) [compound 147507] | 81 | 
147759 (eA*eG*eG*eT*eG*dA*dG*dG*dA*dA*dG*dT*dT*dG*dG*eA*eA*eT*eT*e[5mC]; antisense) [compound 147759] | 19 | 
147761 (eG*eT*eT*e[5mC]*eA*dT*dG*dG*dA*dT*dT*d[5mC]*d[5mC]*dT*dT*e[5mC]*eA*eG*eG*eA; antisense) [compound 147761] | 45 | 
147762 (eA*eT*eG*e[5mC]*eT*d[5mC]*d[5mC]*dA*dT*dT*d[5mC]*dT*d[5mC]*dA*d[5mC]*eA*eT*eG*e[5mC]*eT; antisense) [compound 147762] | 46 | 
147763 (eT*eG*e[5mC]*eG*eA*d[5mC]*dT*dG*dT*dG*dT*d[5mC]*dT*dG*dA*eT*eT*eT*e[5mC]*e[5mC]; antisense) [compound 147763] | 34 | 
147765 (eA*eG*eG*e[5mC]*e[5mC]*d[5mC]*dA*dG*dT*dT*d[5mC]*d[5mC]*dA*dT*dG*eA*e[5mC]*e[5mC]*e[5mC]*eT; antisense) [compound 147765] | 59 | 
147766 (eG*eG*eA*eG*e[5mC]*d[5mC]*d[5mC]*dA*d[5mC]*dG*dT*dG*d[5mC]*dT*dG*eA*eG*eA*eT*eT; antisense) [compound 147766] | 59 | 
147767 (e[5mC]*eG*eT*e[5mC]*e[5mC]*dT*dT*dG*dA*dG*d[5mC]*dA*dG*dT*dG*e[5mC]*e[5mC]*e[5mC]*eG*eA; antisense) [compound 147767] | 5 | 
147768 (e[5mC]*e[5mC]*e[5mC]*eA*eT*dA*dT*dG*dG*dA*dG*dA*dA*dA*dT*e[5mC]*e[5mC]*eT*eT*e[5mC]; antisense) [compound 147768] | 24 | 
147769 (e[5mC]*eA*eT*eG*e[5mC]*d[5mC]*dT*dG*dG*dA*dA*dG*d[5mC]*d[5mC]*dA*eG*eT*eG*eT*e[5mC]) [compound 147769] | 89 | Percent Inhibition 50 nM [1]: 3%; Percent Inhibition 150 nM [1]: 14%; Percent Inhibition 300 nM [1]: 28%
147770 (eG*eT*eG*eT*eT*dG*dA*dA*dT*d[5mC]*d[5mC]*d[5mC]*dT*dT*dG*eA*eA*eA*eT*e[5mC]; antisense) [compound 147770] | 67 | 
147771 (eG*eG*eT*eA*eA*dA*dG*dT*dT*dG*d[5mC]*d[5mC]*d[5mC]*dA*dT*eG*eG*e[5mC]*eT*eG; antisense) [compound 147771] | 68 | 
147772 (antisense eG*eT*eT*eA*eT*dA*dA*dA*dG*dT*d[5mC]*d[5mC]*dA*dG*d[5mC]*eA*eT*eT*eG*eG) [compound 147772] | 78 | 
147773 (antisense e[5mC]*eA*eT*e[5mC]*eA*dG*dA*d[5mC]*dG*dT*dG*dA*dT*dG*dT*eT*e[5mC]*e[5mC]*e[5mC]*eT) [compound 147773] | 85 | 
147774 (antisense eT*eG*eG*e[5mC]*eT*dA*dG*dT*dT*dT*d[5mC]*dA*dA*dT*d[5mC]*e[5mC]*e[5mC]*e[5mC]*eT*eT) [compound 147774] | 84 | 
147775 (antisense e[5mC]*eT*eG*eT*e[5mC]*dA*dT*dG*dA*d[5mC]*dT*dG*d[5mC]*d[5mC]*d[5mC]*eT*eT*eT*eA*e[5mC]) [compound 147775] | 52 | 
147776 (antisense eG*e[5mC]*eT*eT*eG*dA*dA*dG*dT*dT*d[5mC]*dA*dT*dT*dG*eA*eG*eA*eA*eT) [compound 147776] | 92 | Percent Inhibition 50 nM [1]: 0%; Percent Inhibition 150 nM [1]: 17%; Percent Inhibition 300 nM [1]: 44%
147778 (antisense eT*e[5mC]*eA*eG*eA*dT*dA*dT*dA*d[5mC]*dA*dT*dT*dG*dG*e[5mC]*eT*eT*e[5mC]*eA) [compound 147778] | 14 | 
270906 (antisense GTCCCTCAACATCTGAATGC; listed as DNA, chemistry not given here) [compound 270906] |  | Lipoproteins CHOL ([2]; female LDLr(-/-) mice): 564.6 mg/dL; Lipoproteins HDL ([2]; female LDLr(-/-) mice): 200.0 mg/dL; Lipoproteins LDL ([2]; female LDLr(-/-) mice): 310.0 mg/dL; Lipoproteins TRIG ([2]; female LDLr(-/-) mice): 240.4 mg/dL; Liver Enzymes ALT ([2]; female LDLr(-/-) mice): 88.6 IU/L; Liver Enzymes AST ([2]; female LDLr(-/-) mice): 96.0 IU/L; Lipoproteins CHOL ([2]; male LDLr(-/-) mice): 941.0 mg/dL; Lipoproteins HDL ([2]; male LDLr(-/-) mice): 244.2 mg/dL; Lipoproteins LDL ([2]; male LDLr(-/-) mice): 541.9 mg/dL; Lipoproteins TRIG ([2]; male LDLr(-/-) mice): 844.8 mg/dL; Liver Enzymes ALT ([2]; male LDLr(-/-) mice): 348.0 IU/L; Liver Enzymes AST ([2]; male LDLr(-/-) mice): 167.4 IU/L
